Laboratory results published in ChEMBL document CHEMBL4130359, “Indazole-based ligands for estrogen-related receptor α as potential anti-diabetic agents” (Eur J Med Chem, 2017).
The source made the active and inactive calls. The rule behind the calls is not given here.

Tests used:
[1] = Terminal half life in CD-1 mouse at 20 mg/kg administered via oral gavage by LC-MS analysis; type: ADME, organism-based; conditions: in vivo, read-out: beta t1/2 (converted)
[2] = AUC (0 to 24 hrs) in Sprague-Dawley rat at 10 mg/kg administered via oral gavage by LC-MS analysis; type: ADME, organism-based; design: dose 10 mg/kg, time < 24 hr, route oral; conditions: in vivo
Rattus norvegicus [3] = assay: Effect on CTGF gene expression in epididymal white adipose tissue of Zucker rat sub-chronic fa/fa prediabetic model at 10 mg/kg, po qd for 15 days by microarray analysis relative to control; type: functional
Rattus norvegicus [4] = assay: Effect on IKBKB gene expression in epididymal white adipose tissue of Zucker rat sub-chronic fa/fa prediabetic model at 10 mg/kg, po qd for 15 days by microarray analysis relative to control; type: functional
[5] = target: Steroid hormone receptor ERR2 (Homo sapiens, UniProt O95718); assay: Antagonist activity at recombinant GST-tagged human ERRbeta LBD assessed as inhibition of fluorescein-labeled coactivator peptide recruitment preincubated with enzyme followed by coactivator addition by LanthaScreen TR-FRET assay
Sequence of Steroid hormone receptor ERR2 (O95718 whole entry, the tested form may be a part): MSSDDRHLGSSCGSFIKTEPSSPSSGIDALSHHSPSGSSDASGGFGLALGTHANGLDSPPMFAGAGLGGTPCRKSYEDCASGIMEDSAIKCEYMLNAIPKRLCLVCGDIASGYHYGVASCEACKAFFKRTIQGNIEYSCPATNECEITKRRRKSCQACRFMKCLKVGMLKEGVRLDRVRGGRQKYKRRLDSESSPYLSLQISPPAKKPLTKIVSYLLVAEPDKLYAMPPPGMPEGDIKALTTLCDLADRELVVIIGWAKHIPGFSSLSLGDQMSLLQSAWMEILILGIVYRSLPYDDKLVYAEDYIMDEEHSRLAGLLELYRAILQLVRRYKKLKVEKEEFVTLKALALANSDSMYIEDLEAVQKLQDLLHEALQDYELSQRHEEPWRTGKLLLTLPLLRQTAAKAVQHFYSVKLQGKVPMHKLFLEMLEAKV

Rattus norvegicus [6] = assay: Toxicity in Zucker rat sub-chronic fa/fa prediabetic model assessed as serum AST level at 1 mg/kg, po qd for 31 days measured on day 32 (reference value: 187 +/- 37 U/L); type: organism-based; conditions: in vivo, 744 h
Rattus norvegicus [7] = assay: Toxicity in […] model assessed as serum AST level at 10 mg/kg, po qd for 31 days measured on day 32 (reference value: 180 +/- 26 U/L); type: organism-based; conditions: in vivo, 744 h
Rattus norvegicus [8] = assay: Toxicity in Zucker rat sub-chronic fa/fa prediabetic model assessed as serum creatinine level at 10 mg/kg, po qd for 31 days measured on day 32 (reference value: 0.71 +/- 0.07 mg/dl); type: organism-based; conditions: in vivo, 744 h
Rattus norvegicus [9] = assay: Effect on HMGCS2 gene expression in epididymal white adipose tissue of Zucker rat sub-chronic fa/fa prediabetic model at 10 mg/kg, po qd for 15 days by microarray analysis relative to control; type: functional
Rattus norvegicus [10] = assay: Toxicity in Zucker rat sub-chronic fa/fa prediabetic model assessed as liver weight at 50 mg/kg, po qd for 31 days measured on day 32 (reference value: 28 +/- 1.6 g); type: organism-based; conditions: in vivo, 744 h
Rattus norvegicus [11] = assay: Antidiabetic activity in Zucker rat sub-chronic fa/fa prediabetic model assessed as fasting blood glucose level at 50 mg/kg, po qd for 31 days measured on day 29 post dose (reference value: 163 +/- 9.2 mg/dl); type: functional
[12] = AUC (0 to 24 hrs) in Zucker rat sub-chronic fa/fa prediabetic model at 50 mg/kg, po qd for 26 days measured on day 26 post last dose; type: ADME, organism-based; design: dose 50 mg/kg, time < 24 hr, route oral; conditions: in vivo
[13] = target: Oxysterols receptor LXR-beta (Homo sapiens, UniProt P55055); assay: Agonist activity at recombinant GST-tagged human LXRbeta LBD assessed as fluorescein-labeled coactivator peptide recruitment preincubated with enzyme followed by coactivator addition by LanthaScreen TR-FRET assay
Sequence of Oxysterols receptor LXR-beta (P55055 whole entry, the tested form may be a part): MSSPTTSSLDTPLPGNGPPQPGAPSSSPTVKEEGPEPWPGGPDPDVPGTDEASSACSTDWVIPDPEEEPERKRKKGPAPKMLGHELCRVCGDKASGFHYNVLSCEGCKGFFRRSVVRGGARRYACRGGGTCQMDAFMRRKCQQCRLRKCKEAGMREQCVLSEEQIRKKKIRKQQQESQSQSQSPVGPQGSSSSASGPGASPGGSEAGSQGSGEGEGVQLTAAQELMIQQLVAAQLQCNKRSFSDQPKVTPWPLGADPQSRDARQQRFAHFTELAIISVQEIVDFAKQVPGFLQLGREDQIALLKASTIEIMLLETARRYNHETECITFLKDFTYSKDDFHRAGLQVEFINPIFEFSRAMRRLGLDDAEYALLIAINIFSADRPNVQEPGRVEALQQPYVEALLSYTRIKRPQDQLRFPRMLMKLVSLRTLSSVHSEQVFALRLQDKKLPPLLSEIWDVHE

[14] = AUC (0 to 24 hrs) in […] model at 3 mg/kg, po qd for 28 days measured on day 28 post last dose; type: ADME, organism-based; design: dose 3 mg/kg, time < 24 hr, route oral; conditions: in vivo
Rattus norvegicus [15] = assay: Toxicity in Zucker rat sub-chronic fa/fa prediabetic model assessed as serum ALT level at 1 mg/kg, po qd for 31 days measured on day 32 (reference value: 151 +/- 23 U/L); type: organism-based; conditions: in vivo, 744 h
Rattus norvegicus [16] = assay: Effect on HLA-DRA gene expression in epididymal white adipose tissue of Zucker rat sub-chronic fa/fa prediabetic model at 10 mg/kg, po qd for 15 days by microarray analysis relative to control; type: functional
Rattus norvegicus [17] = assay: Antidiabetic activity in po dosed Zucker rat sub-chronic fa/fa prediabetic model assessed as reduction in blood glucose AUC (0 to 120 min) once daily for 31 days measured on day 29 post dose by OGTT; type: functional, organism-based
Rattus norvegicus [18] = assay: Decrease in fed plasma glucose level in Zucker rat sub-chronic fa/fa prediabetic model at 10 mg/kg, po qd for 4 days measured on day 5 relative to control; type: functional; design: scale not given: the % may be the effect or the level left
Rattus norvegicus [19] = assay: Effect on ACOT4 gene expression in epididymal white adipose tissue of Zucker rat sub-chronic fa/fa prediabetic model at 10 mg/kg, po qd for 15 days by microarray analysis relative to control; type: functional
Rattus norvegicus [20] = assay: Toxicity in Zucker rat sub-chronic fa/fa prediabetic model assessed as serum creatinine level at 1 mg/kg, po qd for 31 days measured on day 32 (reference value: 0.71 +/- 0.07 mg/dl); type: organism-based; conditions: in vivo, 744 h
Rattus norvegicus [21] = assay: Effect on MAOB gene expression in epididymal white adipose tissue of Zucker rat sub-chronic fa/fa prediabetic model at 10 mg/kg, po qd for 15 days by microarray analysis relative to control; type: functional
Rattus norvegicus [22] = assay: Effect on ALDH3B1 gene expression in epididymal white adipose tissue of Zucker rat sub-chronic fa/fa prediabetic model at 10 mg/kg, po qd for 15 days by microarray analysis relative to control; type: functional
[23] = target: Peroxisome proliferator-activated receptor delta (Homo sapiens, UniProt Q03181); assay: Agonist activity at recombinant GST-tagged human PPARdelta LBD assessed as fluorescein-labeled coactivator peptide recruitment preincubated with enzyme followed by coactivator addition by LanthaScreen TR-FRET assay
Sequence of Peroxisome proliferator-activated receptor delta (Q03181 whole entry, the tested form may be a part): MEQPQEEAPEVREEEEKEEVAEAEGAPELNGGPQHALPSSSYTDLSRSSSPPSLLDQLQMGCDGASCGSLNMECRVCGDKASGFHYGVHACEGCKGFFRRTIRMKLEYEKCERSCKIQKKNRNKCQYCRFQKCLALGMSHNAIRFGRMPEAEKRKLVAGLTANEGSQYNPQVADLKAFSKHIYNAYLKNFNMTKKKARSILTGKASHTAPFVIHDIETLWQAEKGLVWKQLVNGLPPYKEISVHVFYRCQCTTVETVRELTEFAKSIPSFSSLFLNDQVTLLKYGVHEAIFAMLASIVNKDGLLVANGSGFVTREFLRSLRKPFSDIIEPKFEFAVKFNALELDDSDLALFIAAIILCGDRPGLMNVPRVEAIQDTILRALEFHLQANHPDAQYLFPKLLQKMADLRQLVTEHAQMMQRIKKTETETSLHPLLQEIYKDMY

Rattus norvegicus [24] = assay: Increase in IDH3A mRNA expression in epididymal white adipose tissue of Zucker rat sub-chronic fa/fa prediabetic model at 10 mg/kg, po qd for 15 days by RT-PCR method; type: functional, organism-based
[25] = Cmax in Zucker rat sub-chronic fa/fa prediabetic model at 3 mg/kg, po qd measured on day 1 post dose; type: ADME, organism-based; design: dose 3 mg/kg, route oral; conditions: in vivo
Rattus norvegicus [26] = type: functional, Zucker
Homo sapiens = organism: Homo sapiens; assay: Inhibition of picrotoxin binding to chloride channel (unknown origin) at 10 uM relative to control
[27] = target: Estrogen-related receptor gamma (Homo sapiens, UniProt P62508); assay: Antagonist activity at ERRgamma (unknown origin) assessed as inhibition of co-activator peptide recruitment by TR-FRET assay
Sequence of Estrogen-related receptor gamma (P62508 whole entry): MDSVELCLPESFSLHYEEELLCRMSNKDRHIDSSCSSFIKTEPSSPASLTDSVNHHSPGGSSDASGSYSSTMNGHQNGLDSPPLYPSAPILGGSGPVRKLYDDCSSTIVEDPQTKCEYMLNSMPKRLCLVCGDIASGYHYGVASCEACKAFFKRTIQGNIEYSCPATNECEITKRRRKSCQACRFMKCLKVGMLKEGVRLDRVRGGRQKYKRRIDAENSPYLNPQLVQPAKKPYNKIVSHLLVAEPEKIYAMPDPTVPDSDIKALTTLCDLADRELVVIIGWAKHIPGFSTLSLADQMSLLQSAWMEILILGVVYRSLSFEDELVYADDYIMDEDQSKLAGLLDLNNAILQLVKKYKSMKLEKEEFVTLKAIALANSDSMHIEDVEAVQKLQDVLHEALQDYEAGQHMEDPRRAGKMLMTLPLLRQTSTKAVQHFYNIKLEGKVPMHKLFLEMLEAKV

Rattus norvegicus [28] = assay: Antidiabetic activity in Zucker rat sub-chronic fa/fa prediabetic model assessed as reduction in blood glucose AUC (0 to 120 min) at 10 mg/kg, po qd for 31 days measured on day 29 post dose by OGTT relative to control; type: functional; design: scale not given: the % may be the effect or the level left
[29] = Oral bioavailability in Sprague-Dawley rat at 10 mg/kg administered via gavage by LC-MS analysis; type: ADME, organism-based; conditions: in vivo
Estrogen receptor = Estrogen receptor (Homo sapiens, UniProt P03372); assay: Inhibition of fluormone ES2 green binding to recombinant full length human ERalpha expressed in insect cells by fluorescence polarization assay
Sequence of Estrogen receptor (P03372 whole entry): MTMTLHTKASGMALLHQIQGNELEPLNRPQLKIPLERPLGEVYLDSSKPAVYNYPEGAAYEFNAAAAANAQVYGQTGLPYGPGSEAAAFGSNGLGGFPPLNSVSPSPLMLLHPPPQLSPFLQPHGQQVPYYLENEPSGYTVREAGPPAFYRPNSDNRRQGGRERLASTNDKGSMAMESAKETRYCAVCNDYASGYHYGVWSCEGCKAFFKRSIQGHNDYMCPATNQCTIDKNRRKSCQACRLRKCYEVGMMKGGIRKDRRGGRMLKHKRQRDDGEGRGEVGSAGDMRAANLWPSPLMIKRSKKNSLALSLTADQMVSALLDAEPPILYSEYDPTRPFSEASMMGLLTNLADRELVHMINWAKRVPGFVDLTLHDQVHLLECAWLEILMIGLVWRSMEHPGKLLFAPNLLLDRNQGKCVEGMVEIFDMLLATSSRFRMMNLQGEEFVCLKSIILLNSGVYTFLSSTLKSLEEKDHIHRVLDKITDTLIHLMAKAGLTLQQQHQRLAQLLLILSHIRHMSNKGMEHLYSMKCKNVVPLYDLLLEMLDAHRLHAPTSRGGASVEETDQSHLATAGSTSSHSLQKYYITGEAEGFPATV

[30] = Oral bioavailability in CD-1 mouse at 20 mg/kg administered via gavage by LC-MS analysis; type: ADME, organism-based; conditions: in vivo
Rattus norvegicus [31] = assay: Toxicity in […] chronic ob/ob model assessed as serum triglyceride level at 10 mg/kg, po qd for 31 days measured on day 32 (reference value: 329 +/- 36 mg/dl); type: organism-based; conditions: in vivo, 744 h
Rattus norvegicus [32] = assay: Toxicity in Zucker rat sub-chronic fa/fa prediabetic model assessed as food intake at 3 mg/kg, po qd for 29 days measured on day 1 to 29 during compound dosing (reference value: 969 +/- 18 g); type: organism-based; conditions: in vivo, 696 h

Structure (SMILES): CN1CC[C@@H](N2C(=O)S/C(=C\c3ccc4c(cnn4Cc4ccc(Cl)cc4C(F)(F)F)c3)C2=O)[C@H](F)C1
- half-life [1]: 10.6 h
- AUC(0-t) at 24 h [2]: 5410 ng·h/mL
- fold change (FC) (Rattus norvegicus [3]): 1.458
- fold change (FC) (Rattus norvegicus [4]): -1.241
- IC50 [5]: > 10 µM
- Activity (Rattus norvegicus [6]): 158 U/L
- Activity (Rattus norvegicus [7]): 171 U/L
- Activity (Rattus norvegicus [8]): 0.57 mg/dL
- fold change (FC) (Rattus norvegicus [9]): -1.488
- Activity (Rattus norvegicus [10]): 17.8 g
- Activity (Rattus norvegicus [11]): 105 mg/dL
- AUC at 24 h [12]: 85900 ng·h/mL
- EC50 [13]: > 10 µM
- AUC at 24 h [14]: 2150 ng·h/mL
- Activity (Rattus norvegicus [15]): 159 U/L
- fold change (FC) (Rattus norvegicus [16]): -1.201
- Activity (Rattus norvegicus [17]): Dose-dependent effect
- Activity (Rattus norvegicus [18]): -32%
- fold change (FC) (Rattus norvegicus [19]): 2.122
- Activity (Rattus norvegicus [20]): 0.66 mg/dL
- fold change (FC) (Rattus norvegicus [21]): -1.452
- fold change (FC) (Rattus norvegicus [22]): -1.554
- EC50 [23]: > 10 µM
- Activity (Rattus norvegicus [24]): Active
- Cmax [25]: 725 ng/mL
- Activity (Rattus norvegicus [26]): 17.3%
- inhibition (Homo sapiens): 50%
- IC50 [27]: > 10 µM
- Activity (Rattus norvegicus [28]): 55%
- bioavailability [29]: 84%
- IC50 (Estrogen receptor): > 10 µM
- bioavailability [30]: 52%
- Activity (Rattus norvegicus [31]): 138 mg/dL
- Activity (Rattus norvegicus [32]): 1067 g
